# Measurements reported in patent US9289430B2, “Compounds and methods for inhibiting phosphate transport” (Ardelyx, Inc., priority 2010, dated 2016).
# Tests used:
# [1] = Stability in simulated gastric and intestinal fluid; format: in vitro ADME; details: 6 hr, 1-20 μM
# Procedure: Test compounds were incubated at 1-20 μM in simulated gastric fluid (SGF; standard USP solution with 3 mg/mL pepsin) or simulated intestinal fluid (SIF; standard USP solution with 3 mg/mL pancreatin) for 3 hr or 6 hr. HPLC-UV or HPLC-MS were used to determine test compound levels using peak area %. Results (Table 5) were reported as the percentage of test compound remaining after incubation in a given condition relative to test compound present at t=0 in the same condition.
# [2] = target: T1, rat NaP2b (SLC34A2) (Rattus norvegicus, UniProt Q9JJ09); test: NaP2b-mediated Pi transport: 33P phosphate uptake into transfected HEK293 cells; format: cell-based; details: 100 uM KH2PO4, PiT-silencing agent, read-out: pIC50 range for rat Nap2b (converted)
# T1 construct: host or cells: HEK293
# T1 sequence (Q9JJ09 1-695): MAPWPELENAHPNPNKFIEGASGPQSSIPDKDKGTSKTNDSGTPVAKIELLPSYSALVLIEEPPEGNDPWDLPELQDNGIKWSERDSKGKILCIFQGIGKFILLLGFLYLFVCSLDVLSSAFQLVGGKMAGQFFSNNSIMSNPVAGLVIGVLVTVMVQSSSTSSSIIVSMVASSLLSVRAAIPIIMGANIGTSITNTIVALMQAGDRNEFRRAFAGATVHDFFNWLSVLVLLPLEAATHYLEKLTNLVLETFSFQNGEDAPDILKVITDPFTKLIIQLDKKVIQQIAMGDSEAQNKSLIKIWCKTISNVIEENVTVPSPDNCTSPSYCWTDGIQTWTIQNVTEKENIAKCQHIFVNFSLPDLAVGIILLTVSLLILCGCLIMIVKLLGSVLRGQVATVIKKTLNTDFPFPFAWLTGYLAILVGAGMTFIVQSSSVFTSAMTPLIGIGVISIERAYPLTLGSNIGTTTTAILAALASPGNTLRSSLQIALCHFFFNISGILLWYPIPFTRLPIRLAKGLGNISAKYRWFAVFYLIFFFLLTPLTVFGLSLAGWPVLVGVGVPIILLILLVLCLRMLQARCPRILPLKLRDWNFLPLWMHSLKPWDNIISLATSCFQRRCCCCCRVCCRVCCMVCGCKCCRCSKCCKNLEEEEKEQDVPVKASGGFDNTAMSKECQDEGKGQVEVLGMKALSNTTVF
# Procedure: (§1) Materials. HEK293 cells were obtained from the American Type Culture collection and propagated per their instructions. Expression clones for rat and human NaP2b (SLC34A2) were obtained from Open Biosystems (Catalog numbers MRN1768-9510282, and MHS1010-99823026, respectively). The sequence of the human protein was mutated to insert a threonine after residue 37, and to introduce a N39D mutation.
# (§2) Inhibition of Pi Transport. The rate of phosphate (Pi) uptake into HEK293 cells was measured using a modification of the method described by Mohrmann et al. (Mohrmann, I., Mohrmann, M., Biber, J., and Murer, H. (1986) Am. J. Phys. 250(3 Pt 1):G323-30.) Transfected HEK293 cells were treated with a pharmacological agent to minimize endogenous PiT-mediated phosphate transport activity, such that the only remaining sodium-dependent phosphate transport activity is that which was bestowed by introduction of the NaP2b genes.
# (§3) Cells were seeded into 96-well plates at 25,000 cells/well and cultured overnight. Lipofectamine 2000 (Invitrogen) was used to introduce the NaP2b cDNA, and the cells were allowed to approach confluence during a second overnight incubation. […] Cells were then overlayed with either choline uptake buffer or sodium uptake buffer (14 mM Tris, 137 mM sodium chloride, 5.4 mM KCl, 2.8 mM CaCl2, 1.2 mM MgSO4, 100 uM KH2PO4, PiT-silencing agent, 1 mg/mL Bovine Serum Albumin, pH 7.4) containing 6-9 uCi/mL ^33P orthophosphoric acid (Perkin Elmer) and test compound. Each compound was tested at twelve concentrations ranging from 0.1 nM to 30 uM. Assays were run in duplicate.
# (§4) After incubation for 3-30 minutes at room temperature, assay mixtures were removed, and the cells were washed twice with ice cold stop solution (137 mM sodium chloride, 14 mM Tris, pH 7.4). Cells were lysed by addition of 20 μL 0.1% Tween 80 followed by 100 μL scintillation fluid, and counted using a TopCount (Perkin Elmer).
# (§5) pIC50 (the negative log of the IC50) values of the test compounds were calculated using GraphPad Prism.
# [3] = target: T2, human NaP2b (SLC34A2) (Homo sapiens, UniProt O95436); test: as above; format: cell-based; details: human protein with threonine inserted after residue 37 and N39D, 100 uM KH2PO4, read-out: pIC50 range for human Nap2b (converted)
# T2 construct: host or cells: HEK293
# T2 sequence (O95436 1-690): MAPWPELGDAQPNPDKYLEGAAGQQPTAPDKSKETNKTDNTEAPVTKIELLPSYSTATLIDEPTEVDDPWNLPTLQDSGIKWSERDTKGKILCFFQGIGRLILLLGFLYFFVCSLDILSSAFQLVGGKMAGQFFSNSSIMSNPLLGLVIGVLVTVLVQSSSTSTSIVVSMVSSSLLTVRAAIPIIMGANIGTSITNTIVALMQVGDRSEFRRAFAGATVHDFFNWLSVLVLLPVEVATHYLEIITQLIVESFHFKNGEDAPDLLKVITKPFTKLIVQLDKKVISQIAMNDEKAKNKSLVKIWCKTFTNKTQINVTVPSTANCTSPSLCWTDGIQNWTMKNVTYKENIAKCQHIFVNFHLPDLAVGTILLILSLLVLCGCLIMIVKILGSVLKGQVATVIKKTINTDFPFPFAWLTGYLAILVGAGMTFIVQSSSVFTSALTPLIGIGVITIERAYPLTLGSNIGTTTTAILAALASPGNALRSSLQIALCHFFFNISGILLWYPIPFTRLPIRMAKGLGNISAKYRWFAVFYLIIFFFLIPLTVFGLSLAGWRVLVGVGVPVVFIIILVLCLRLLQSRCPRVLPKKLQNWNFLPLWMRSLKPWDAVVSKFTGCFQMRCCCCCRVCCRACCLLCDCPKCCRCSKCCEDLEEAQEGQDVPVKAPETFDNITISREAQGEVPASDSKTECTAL
# Procedure: as §1, §2, §3, §4, §5
# [4] = Fecal recovery of orally administered compounds; format: in vivo, Sprague-Dawley rats; details: rats, oral gavage, nominal 10 mg/kg (actual 7.6-11 mg/kg), feces 0-48 hr after dosing
# Procedure: Quantitative determination of test compound level in feces after oral gavage was performed using the same set of animals used to determine test compound concentration in plasma (Example 30). The animals were kept in metabolic cages and feces were collected from the time of dosing until 48 hr after dosing. Upon collection, feces was dried by lyophilization and ground to a visually homogenous powder. Duplicate samples of ground feces from each individual animal were weighed out and extracted using organic solvent. Extracted samples were then diluted into mobile phase and test compound levels were quantitatively determined by LC-MS/MS analysis as described in “Example 30” except that the standard curve was prepared in a feces matrix. Extraction conditions were not optimized for individual compounds, and thus may represent a minimal level of recovery.
# [5] = test system: Uptake of Phosphorus from the Intestine; test: In vivo co-dosing in chow, urinary P output relative to P consumed; parameters: species or system Sprague-Dawley rats; details: rats, compound in chow, nominal 100 mg/kg/day (mean actual 104-105 mg/kg/day), mean of 24-96 h, vs control
# Description: Male, 7-week-old Sprague-Dawley rats (Charles-River laboratories international, Hollister, Calif.) were allowed to acclimate for a minimum of 3 days. The experiment was initiated by switching animals to a synthetic diet (0.6% phosphorus and 0.6% calcium, Harlan Teklad TD.84122) for four days. After this time, the animals were placed into metabolic cages for daily monitoring of food and water consumption, as well as urine and fecal collections. Test compounds were incorporated into the powdered diet listed above containing 3% chocolate flavoring (w/w, BioSery #7345) at 1.3 mg test compound per gram of diet to achieve an average daily nominal dose of 100 mg/kg/day. The actual dose received by each animal was later determined by measuring prepared diet consumption and body weight. Urine samples were collected in three daily periods from 24-48, 48-72, and 72-96 hours of drug dosing. […] Phosphorous levels in the urine were determined by anion exchange chromatography using a Dionex ICS-3000 ion chromatography system. […] Elution of urine phosphate ions was monitored via conductivity detector and reported as ppm relative to a standard ion solution containing phosphate. Daily urinary P output relative to the P consumed in the prepared diet for each animal was calculated. […] The differences between the means of control and treated groups were evaluated by t tests. […]
structure (smiles),measurement,setting,value
"CN(CCOCCOCCOCCC(=O)O)C(=O)c1cccc(C(=O)Nc2ccc(N3CCCCC3)cc2C(=O)Nc2ccn(-c3cccc(C(F)(F)F)c3)n2)c1 [Example 15, 2-Methyl-1-oxo-1-(3-((4-(piperidin-1-yl)-2-((1-(3-(trifluoromethyl)phenyl)-1H-pyrazol-3-yl)carbamoyl)phenyl)carbamoyl)phenyl)-5,8,11-trioxa-2-azatetradecan-14-oic acid]","% remaining, SGF",[1]; simulated gastric fluid with 3 mg/mL pepsin,100%
same,"% remaining, SIF",[1]; simulated intestinal fluid with 3 mg/mL pancreatin,97%
same,IC50,[2],1000 to 7940 nM
same,IC50,[3],< 1000 nM
same,% recovered in feces,[4],17%
same,Mean % inhibition Urine Pout/P consumed,[5],9%
